Assay results from ChEMBL document CHEMBL5226310, “Synthesis and Characterization of Novel Mono- and Bis-Guanyl Hydrazones as Potent and Selective ASIC1 Inhibitors Able to Reduce Brain Ischemic Insult” (J Med Chem, 2021).
pIC50: −log10 of the molar value. One block for each molecule: values may come before it. Active and inactive are the calls of the source. The rule behind the calls is not given here.

What was measured:
[1] = molecular target: T1, Acid-sensing ion channel 1 (Homo sapiens, UniProt P78348); test: Inhibition of human ASIC1a in HEK293 cells assessed as inward proton-gated current at pH 6.0 incubated with compound followed by PcTx1 addition by patch-clamp electrophysiology; type: cell-based
T1 sequence (P78348 whole entry): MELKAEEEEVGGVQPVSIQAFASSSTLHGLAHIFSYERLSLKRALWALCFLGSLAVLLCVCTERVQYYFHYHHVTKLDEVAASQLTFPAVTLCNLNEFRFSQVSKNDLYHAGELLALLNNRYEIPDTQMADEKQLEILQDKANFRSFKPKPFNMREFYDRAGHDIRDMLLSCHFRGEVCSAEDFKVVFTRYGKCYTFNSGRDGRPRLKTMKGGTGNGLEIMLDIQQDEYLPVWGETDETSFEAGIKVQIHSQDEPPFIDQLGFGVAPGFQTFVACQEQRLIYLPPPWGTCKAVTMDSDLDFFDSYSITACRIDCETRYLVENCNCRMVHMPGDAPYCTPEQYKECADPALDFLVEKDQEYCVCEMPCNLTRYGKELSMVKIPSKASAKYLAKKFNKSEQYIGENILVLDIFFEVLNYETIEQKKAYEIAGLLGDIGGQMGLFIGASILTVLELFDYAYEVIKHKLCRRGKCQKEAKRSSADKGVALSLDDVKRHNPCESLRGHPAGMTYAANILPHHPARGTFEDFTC

[2] = molecular target: T2, Acid-sensing ion channel 1 (Mus musculus) (UniProt Q6NXK8); test: Inhibition of mouse ASIC1a expressed in genetically engineered-CHO-K1 cells at 10 uM preincubated for 10 mins at pH 7.4 followed by cell stimulation with proton injection at pH 6.5 by electro-chromic fluorescence voltage sensor-based assay relative to control
T2 sequence (whole entry): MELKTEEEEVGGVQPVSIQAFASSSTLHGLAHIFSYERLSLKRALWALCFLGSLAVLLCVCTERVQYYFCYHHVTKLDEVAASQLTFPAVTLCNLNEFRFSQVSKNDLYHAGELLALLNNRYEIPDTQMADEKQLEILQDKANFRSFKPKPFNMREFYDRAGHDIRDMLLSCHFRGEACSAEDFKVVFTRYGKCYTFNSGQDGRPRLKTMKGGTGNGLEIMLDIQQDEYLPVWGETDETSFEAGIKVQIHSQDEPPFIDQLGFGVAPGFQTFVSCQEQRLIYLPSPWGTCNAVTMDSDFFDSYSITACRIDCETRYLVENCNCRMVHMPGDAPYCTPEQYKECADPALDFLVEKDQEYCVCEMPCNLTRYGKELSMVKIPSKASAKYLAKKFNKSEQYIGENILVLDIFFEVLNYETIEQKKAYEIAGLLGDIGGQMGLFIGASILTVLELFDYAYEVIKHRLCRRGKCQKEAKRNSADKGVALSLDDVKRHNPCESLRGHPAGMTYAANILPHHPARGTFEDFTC

[3] = tested on: Mus musculus; test: Neuroprotective activity in mouse model of middle cerebral artery occlusion-induced transient brain ischemia assessed as decrease in ischemic volume at 0.8 mg/kg, ip administered thrice measured after 24 hrs (reference value: 58 +/- 2.6 %); type: functional; set-up: scale not given: the % may be the effect or the level left
[4] = tested on: Cortical neurone; test: Neuroprotective activity in OGD/Rx-induced E16 Wistar rat Primary cortical neurons assessed as increase in cell viability at 0.38 uM incubated for 3 hrs during OGD followed by reoxygenation with compound re-addition measured after 21 hrs by MTT assay; type: functional, cell-based; conditions: time 24.0 hrs
[5] = molecular target: T3, Acid-sensing ion channel 2 (Mus musculus) (UniProt Q925H0); test: Inhibition of mouse ASIC2a expressed in genetically engineered-CHO-K1 cells at 10 uM preincubated for 10 mins at pH 7.4 followed by cell stimulation with proton injection at pH 6.5 by electro-chromic fluorescence voltage sensor-based assay relative to control
T3 sequence (whole entry): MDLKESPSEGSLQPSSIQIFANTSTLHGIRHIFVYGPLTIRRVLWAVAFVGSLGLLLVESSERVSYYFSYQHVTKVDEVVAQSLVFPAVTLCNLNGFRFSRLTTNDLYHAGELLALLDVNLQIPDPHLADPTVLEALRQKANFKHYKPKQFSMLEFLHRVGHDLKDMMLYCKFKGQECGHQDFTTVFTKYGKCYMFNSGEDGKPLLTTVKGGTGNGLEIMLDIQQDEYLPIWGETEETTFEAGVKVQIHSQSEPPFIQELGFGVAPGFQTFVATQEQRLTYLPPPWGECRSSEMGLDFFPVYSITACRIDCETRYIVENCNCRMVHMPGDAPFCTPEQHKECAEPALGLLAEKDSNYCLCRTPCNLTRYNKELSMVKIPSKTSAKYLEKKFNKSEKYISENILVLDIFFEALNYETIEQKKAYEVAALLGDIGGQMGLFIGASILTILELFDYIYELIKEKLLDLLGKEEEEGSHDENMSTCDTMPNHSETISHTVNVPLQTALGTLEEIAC

[6] = tested on: Mus musculus; test: Neuroprotective activity in mouse model of middle cerebral artery occlusion-induced transient brain ischemia assessed as reduction in neurological deficits at 0.8 mg/kg, ip administered thrice measured after 24 hrs; type: functional, organism-based
[7] = tested on: Cortical neurone; test: Neuroprotective activity in OGD/Rx-induced E16 Wistar rat Primary cortical neurons assessed as increase in cell viability at 1.9 uM incubated for 3 hrs during OGD followed by reoxygenation with compound re-addition measured after 21 hrs by MTT assay; type: functional, cell-based; conditions: time 24.0 hrs
[8] = tested on: Cortical neurone; test: Neuroprotective activity in OGD/Rx-induced E16 Wistar rat Primary cortical neurons assessed as increase in cell viability incubated for 3 hrs during OGD followed by reoxygenation with compound re-addition measured after 21 hrs by MTT assay; type: functional, cell-based; conditions: time 24.0 hrs
[9] = tested on: Mus musculus; test: Neuroprotective activity in mouse model of middle cerebral artery occlusion-induced transient brain ischemia assessed as decrease in ischemic volume at 0.6 mg/kg, ip administered thrice measured after 24 hrs (reference value: 58 +/- 2.6 %); type: functional; set-up: scale not given: the % may be the effect or the level left
[10] = tested on: Cortical neurone; test: Neuroprotective activity in OGD/Rx-induced E16 Wistar rat Primary cortical neurons assessed as increase in cell viability at 2.1 uM incubated for 3 hrs during OGD followed by reoxygenation with compound re-addition measured after 21 hrs by MTT assay; type: functional, cell-based; conditions: time 24.0 hrs
[11] = tested on: Cortical neurone; test: Neuroprotective activity in OGD/Rx-induced E16 Wistar rat Primary cortical neurons assessed as increase in cell viability at 2.1 uM incubated for 3 hrs during OGD followed by compound removal and reoxygenation measured after 21 hrs by MTT assay; type: functional, cell-based
[12] = tested on: Cortical neurone; test: Neuroprotective activity in OGD/Rx-induced E16 Wistar rat Primary cortical neurons assessed as increase in cell viability at 2.59 uM incubated for 3 hrs during OGD followed by reoxygenation with compound re-addition measured after 21 hrs by MTT assay; type: functional, cell-based
[13] = tested on: Mus musculus; test: Neuroprotective activity in mouse model of middle cerebral artery occlusion-induced transient brain ischemia assessed as reduction in focal neurological deficits at 0.65 mg/kg, ip administered thrice measured after 24 hrs; type: functional, organism-based
[14] = tested on: Mus musculus; test: Neuroprotective activity in mouse model of middle cerebral artery occlusion-induced transient brain ischemia assessed as reduction in focal neurological deficits at 0.65 mg/kg, ip administered thrice measured upto 72 hrs; type: functional, organism-based
[15] = tested on: Mus musculus; test: Neuroprotective activity in mouse model of middle cerebral artery occlusion-induced transient brain ischemia assessed as decrease in ischemic volume at 0.65 mg/kg, ip administered thrice measured after 24 hrs (reference value: 58 +/- 2.6 %); type: functional; set-up: scale not given: the % may be the effect or the level left
[16] = molecular target: T4, Acid-sensing ion channel 1 (Homo sapiens) (UniProt P78348); test: Inhibition of ASIC1a in acid stimulated-human Neural Progenitor Cells assessed as reduction in current amplitude at pH 6.5 at 10 uM measured for 5 mins with acid stimulation for every 2 mins by electrophysiology (reference value: 92.41 +/- 33.66 pA); type: cell-based; conditions: Neural Progenitor Cell
T4 sequence (whole entry): T1 sequence (P78348 whole entry)

[17] = tested on: Mus musculus; test: Neuroprotective activity in mouse model of middle cerebral artery occlusion-induced transient brain ischemia assessed as reduction in ischemic volume at 0.65 mg/kg, ip administered thrice measured upto 72 hrs relative to control; type: functional; set-up: scale not given: the % may be the effect or the level left
[18] = tested on: Cortical neurone; test: Neuroprotective activity in OGD/Rx-induced E16 Wistar rat Primary cortical neurons assessed as increase in cell viability at 0.4 uM incubated for 3 hrs during OGD followed by compound removal and reoxygenation measured after 21 hrs by MTT assay; type: functional, cell-based
[19] = tested on: Mus musculus; test: Neuroprotective activity in mouse model of middle cerebral artery occlusion-induced transient brain ischemia assessed as ischemic volume at 6.5 mg/kg, ip administered thrice measured after 24 hrs relative to control; type: functional
[20] = tested on: Mus musculus; test: Neuroprotective activity in mouse model of middle cerebral artery occlusion-induced transient brain ischemia assessed as ischemic volume at 0.65 mg/kg, ip administered thrice measured after 24 hrs relative to control; type: functional
[21] = tested on: Mus musculus; test: Neuroprotective activity in mouse model of middle cerebral artery occlusion-induced transient brain ischemia assessed as reduction in general neurological deficits at 0.65 mg/kg, ip administered thrice measured after 24 hrs; type: functional, organism-based
[22] = molecular target: T4, Acid-sensing ion channel 1 (Homo sapiens); test: Inhibition of ASIC1a in acid stimulated-human Neural Progenitor Cells assessed as reduction in current amplitude at pH 6.5 at 10 uM measured for 5 mins with acid stimulation for every 2 mins by electrophysiology relative to control; type: cell-based; conditions: Neural Progenitor Cell
[23] = tested on: Mus musculus; test: Neuroprotective activity in mouse model of middle cerebral artery occlusion-induced transient brain ischemia assessed as reduction in general neurological deficits at 0.65 mg/kg, ip administered thrice measured upto 72 hrs; type: functional, organism-based
[24] = tested on: Cortical neurone; test: Neuroprotective activity in OGD/Rx-induced E16 Wistar rat Primary cortical neurons assessed as increase in cell viability at 0.4 uM incubated for 3 hrs during OGD followed by reoxygenation with compound re-addition measured after 21 hrs by MTT assay; type: functional, cell-based; conditions: time 24.0 hrs
[25] = tested on: Cortical neurone; test: Neuroprotective activity in OGD/Rx-induced E16 Wistar rat Primary cortical neurons assessed as increase in cell viability at 9.5 uM incubated for 3 hrs during OGD followed by reoxygenation with compound re-addition measured after 21 hrs by MTT assay; type: functional, cell-based; conditions: time 24.0 hrs

pIC50 [1]: 6.14
inhibition [2]: 9.09%
inhibition [5]: 61.3%
SMILES: Cl.Cl.N=C(N)N/N=C\c1ccc(-c2cc(-c3ccc(/C=N\NC(=N)N)cc3)[nH]n2)cc1
Activity [3]: 40.9%
Activity [4]: Active
Activity [6]: Active

pIC50 [1]: 5.70
inhibition [5]: 40.3%
SMILES: COc1ccc(Cn2nc(-c3ccc(F)cc3)cc2-c2ccc(/C=N/NC(=N)N)cc2)cc1
Activity [7]: Active

pIC50 [1]: 5.70
inhibition [2]: 24.6%
inhibition [5]: 86.2%
SMILES: N=C(N)N/N=C/c1ccc(-c2cc(-c3ccc(Br)cc3)n[nH]2)cc1
Activity [8]: Dose-Dependent Effect
Activity [9]: 44%
Activity [10]: Active
Activity [11]: Active

pIC50 [1]: 5.59
inhibition [2]: 41.6%
inhibition [5]: 83.6%
SMILES: N=C(N)N/N=C/c1ccc(-c2cc(-c3ccc(F)cc3)n[nH]2)cc1
Activity [12]: Active

pIC50 [1]: 6.39
inhibition [2]: 53%
Activity [16]: 9.37 pA
inhibition [5]: 35.4%
inhibition [22]: 70%
SMILES: Cl.N=C(N)N/N=C\c1ccc(-c2cccc(-c3ccc(/C=N/NC(=N)N)cc3)c2)cc1
Activity [13]: Active
Activity [14]: Active
Activity [15]: 34.7%
Activity [8]: Dose-Dependent Effect
Activity [17]: 35.3%
Activity [18]: Active
Activity [19]: 50.1%
Activity [20]: 47.1%
Activity [21]: Active
Activity [23]: Active
Activity [24]: Active

pIC50 [1]: 5.02
inhibition [2]: 24.2%
inhibition [5]: 95.9%
SMILES: N=C(N)N/N=C/c1ccc(-c2cc(-c3ccc(F)cc3)on2)cc1
Activity [25]: Active
